Experimental data taken from patent publication US12539264B2, “Composition comprising pentapeptide as active ingredient” (priority 2020, dated 2026).
No end group written: not given here.

How the values were obtained:
SNARE complex = SNARE complex (Homo sapiens, UniProt Q16623); test: Inhibition of SNARE complex formation in nerve cells (Western blot, syntaxin 1a antibody); format: cell-based
[1] = rat, in vivo
SH-SY5Y cells = test: Intracellular penetration of rhodamine-pentapeptide conjugate (fluorescence microscopy); format: cell-based; settings: rhodamine-peptide conjugate, 4 hours
Procedure: In order to confirm that the pentapeptide of the present invention penetrates into the nerve cells, SH-SY5Y cells were seeded in a 6-well plate at a density of 3×10^5 cells/well and cultured in a 37° C., 5% CO2 incubator for 24 hours, and then the medium was replaced with serum-free medium. After treatment with the rhodamine-peptide conjugate for 4 hours at each concentration, cells were fixed by treatment with 4% paraformaldehyde, and nuclei were stained using a DAPI staining kit (Invitrogen, USA). Intracellular peptide penetration was observed using a fluorescence microscope. Blue represents the nuclei of cells stained with DAPI, and red represents the ‘rhodamine-pentapeptide’ conjugate.

Chain of SNARE complex (Q16623 whole entry, one chain of several): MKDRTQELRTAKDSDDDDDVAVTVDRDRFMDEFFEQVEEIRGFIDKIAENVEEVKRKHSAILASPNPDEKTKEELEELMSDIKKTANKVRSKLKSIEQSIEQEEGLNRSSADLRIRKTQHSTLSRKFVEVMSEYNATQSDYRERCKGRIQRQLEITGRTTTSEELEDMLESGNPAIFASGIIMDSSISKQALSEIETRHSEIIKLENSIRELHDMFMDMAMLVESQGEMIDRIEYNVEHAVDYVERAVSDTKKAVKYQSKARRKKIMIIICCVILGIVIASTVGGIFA

botulinum toxin
SNARE complex formation (SNARE complex): inhibited

KFLIK [pentapeptide, KFLIK]
penetration into skin tissue [1]: penetrated into the muscle layer of the skin tissue and co-localized with the nerve cell marker
penetration into nerve cells (SH-SY5Y cells): penetrated into nerve cells
